Results on 10 compounds are retold here after PMC11822212, “High-throughput screening identifies Aurora kinase B as a critical therapeutic target for Merkel cell carcinoma” (Nature Communications, 2025).

Like-named read-outs stand apart in the source and are kept apart here.

One data set concerns MCC13 cells (VN-MCC). The data set can be described thus: qHTS cell viability (CellTiter-Glo, 72 h; primary and follow-up small molecule screen). The data set is classed as cell-based, human. (qHTS replaces the single test concentration by a dilution series.)
Data set [1] relates to MCC26 cells (VN-MCC). Described as above. The data set is classed as cell-based, human.
The subject of the next data set is UISO cells (VN-MCC). The description is as above. The format is cell-based, human.
The test system of the next data set is WAGA cells (VP-MCC). The description is as above. The format is cell-based, human.
A further data set relates to MKL-1 cells (VP-MCC). The description is as above. The data set is classed as cell-based, human.
Data set [2] has as its system MKL-2 cells (VP-MCC). Described as above. The format is cell-based, human.
The next data set concerns HACAT cells. In words: qHTS cell viability (CellTiter-Glo, 72 h; primary screen), control cell line. The format is cell-based, human.
For another data set, the system named is HEK293T cells. Described as above. The format is cell-based, human.
A further data set has as its system NIH-3T3 cells. The data set is described as above. The data set is classed as cell-based, mouse.
In a further data set the test system is CRL-7250 cells. The description is as above. The data set is classed as cell-based.
Data set [3] concerns MCC cell lines (WAGA, MKL-1, MKL-2, MCC13, MCC26, UISO). The data set can be described thus: qHTS cell viability, all six MCC cell lines as a group (mean AUC, MCC.avg). The data set is classed as cell-based, human.
The subject of data set [4] is VP-MCC cell lines (WAGA, MKL-1, MKL-2). The data set can be described thus: qHTS cell viability, VP-MCC cell lines as a group (mean AUC, VP.MCC.avg). The format is cell-based, human.
In data set [5] the test system is VN-MCC cell lines (MCC13, MCC26, UISO). The data set can be described thus: qHTS cell viability, VN-MCC cell lines as a group (mean AUC, VN.MCC.avg). The format is cell-based, human.
In data set [6] the test system is control cell lines (HACAT, HEK293T, CRL-7250, NIH-3T3). The data set can be described thus: qHTS cell viability, control cell lines as a group (mean AUC, Control.avg). The format is cell-based.
The subject of data set [7] is six MCC cell lines and four control cell lines. The data set can be described thus: qHTS cell viability, all 10 cell lines screened. The data set is classed as cell-based.
The test system of data set [8] is MCC26 cells (VN-MCC). The data set is classed as cell-based, human. As for the experimental part: (§1) A non-targeting control (Silencer Select Negative Control No. 2 siRNA) and a positive control (AllStars Cell Death Control siRNA) were used as controls. Lipofectamine RNAiMax (Thermo Fisher Scientific, Grand Island, NY) was obtained as the transfection reagent. […] Three siRNAs per gene were arrayed in 384 well plates, one siRNA per well. […] Cell viability was measured by CellTiter-Glo assay following the manufacturer's instructions (G7572; Promega, Madison, WI, USA) 96 h after siRNA transfection. Assay plates were measured using BMG Pherastar plate reader Three different siRNAs (sequences: [NT], and [NT] targeting INCENP as well as negative non-targeting siRNA control were purchased from Thermo Fisher Scientific (Grand Island, NY).

Data set [9] concerns MKL-2 cells (VP-MCC). The format is cell-based, human. As for the experimental part:
as §1

Where [10] appears, read: MIPE library, 11-point DRC, sheet S2D.
The mark [11] stands for this setting: MIPE library, 11-point DRC, sheet S2E.
Setting [12] is: MIPE library, 11-point DRC, control cell line, sheet S2D.
[13] abbreviates: MIPE library, 11-point DRC, control cell line, sheet S2E.

On to `C=Cc1c(C)c2cc3nc(cc4[nH]c(cc5nc(cc1[nH]2)C(C)=C5CCC(=O)O)c(CCC(=O)OC)c4C)[C@@]1(C)C3=CC=C(C(=O)OC)[C@H]1C(=O)OC` [Verteporfin], for which the MCC13_AUC with MCC13 cells (VN-MCC) (setting [10]) and with MCC13 cells (VN-MCC) (setting [11]) was 440.785 in each case. The MCC26_AUC in the data set on MCC26 cells (VN-MCC) [1] (setting [10]) and in the data set with MCC26 cells (VN-MCC) [1] (setting [11]) was 397.153 in each case. Also, the UISO_AUC with UISO cells (VN-MCC) (setting [10]) and with UISO cells (VN-MCC) (setting [11]) was 271.383 in each case. Also, the WAGA_AUC in the data set with WAGA cells (VP-MCC) (setting [10]) and in the data set with WAGA cells (VP-MCC) (setting [11]) was 266.998 throughout. The MKL1_AUC with MKL-1 cells (VP-MCC) (setting [10]) and in the data set with MKL-1 cells (VP-MCC) (setting [11]) was 279.212 each time. In addition, the MKL2_AUC in the data set with MKL-2 cells (VP-MCC) [2] (setting [10]) and with MKL-2 cells (VP-MCC) [2] (setting [11]) was 217.219 each time. In addition, the HACAT_AUC in the data set with HACAT cells (setting [12]) and in the data set with HACAT cells (setting [13]) was 478.04 throughout. In addition, the HEK293T_AUC in the data set with HEK293T cells (setting [12]) and with HEK293T cells (setting [13]) was 435.497 in each case. Further, the NIH3T3_AUC in the data set with NIH-3T3 cells (setting [12]) and in the data set with NIH-3T3 cells (setting [13]) was 474.512 each time. In addition, the CRL7250_AUC with CRL-7250 cells (setting [12]) and in the data set with CRL-7250 cells (setting [13]) was 465.081 throughout. Moreover, the MCC_Avg_AUC in data set [3] (MIPE library, mean AUC of six MCC cell lines, sheet S2D) is reported as 312.125; in [3] (MIPE library, mean AUC of six MCC cell lines, sheet S2E) it was 312.125. In addition, the Control-VP-MCC is reported as 208.806 in [4] (MIPE library, Control AUC minus VP-MCC AUC (therapeutic window), sheet S2D) and 208.806 in data set [4] (MIPE library, Control AUC minus VP-MCC AUC (therapeutic window), sheet S2E). Moreover, the VP-MCC_Avg_AUC in [4] (MIPE library, mean AUC of VP-MCC cell lines, sheet S2D) is given as 254.477; in data set [4] (MIPE library, mean AUC of VP-MCC cell lines, sheet S2E), 254.477. Also, the Control-VN-MCC was found to be 93.5089 in [5] (MIPE library, Control AUC minus VN-MCC AUC (therapeutic window), sheet S2D) and 93.5089 in data set [5] (MIPE library, Control AUC minus VN-MCC AUC (therapeutic window), sheet S2E). For the same compound, the VN-MCC_Avg_AUC came to 369.774 in [5] (MIPE library, mean AUC of VN-MCC cell lines, sheet S2D) and 369.774 in data set [5] (MIPE library, mean AUC of VN-MCC cell lines, sheet S2E). Also, the Control_Avg_AUC in [6] (MIPE library, mean AUC of control cell lines, sheet S2D) turned out to be 463.283; in data set [6] (MIPE library, mean AUC of control cell lines, sheet S2E), 463.283. Also, the Control-MCC in data set [7] (MIPE library, Control AUC minus MCC AUC (therapeutic window), sheet S2D) is on record as 151.157; in data set [7] (MIPE library, Control AUC minus MCC AUC (therapeutic window), sheet S2E), 151.157.

In turn, `CCOc1cc(N2CCC(O)CC2)ccc1Nc1ncc2c(n1)N(C)c1ccccc1C(=O)N2C` [XMD8-92] returned an MCC13_AUC in the data set with MCC13 cells (VN-MCC) of 476.46. Also, in the data set with MCC26 cells (VN-MCC) [1], the MCC26_AUC is 462.249. The UISO_AUC with UISO cells (VN-MCC) stood at 455.545. The WAGA_AUC in the data set with WAGA cells (VP-MCC) is given as 403.248. This compound also gave an MKL1_AUC with MKL-1 cells (VP-MCC) of 404.412. In the data set with MKL-2 cells (VP-MCC) [2], this compound came in with an MKL2_AUC of 364.829. In the data set with HACAT cells, the HACAT_AUC turned out to be 464.723. The compound also came in with an HEK293T_AUC with HEK293T cells of 449.91. The compound also displayed an NIH3T3_AUC in the data set on NIH-3T3 cells of 462.049. The same compound had a CRL7250_AUC in the data set with CRL-7250 cells of 459.588. Besides, in data set [3], the MCC_Avg_AUC was found to be 427.79. In data set [4], this compound yielded a Control-VP-MCC of 68.2382 and a VP-MCC_Avg_AUC of 390.829. In data set [5], this compound gave a Control-VN-MCC of -5.684 and a VN-MCC_Avg_AUC of 464.751. In data set [6], this compound came in with a Control_Avg_AUC of 459.068. Moreover, the Control-MCC in data set [7] is recorded as 31.2771.

On to “AAAUGUUGAUCUCCUUUCC (chemistry not given here)”, for which the Percent viability in the data set on MCC26 cells (VN-MCC) [8] stood at 97.2%; with MKL-2 cells (VP-MCC) [9], 84.7%.

Consider “AGAUCAACCCAGAUAACUAtt (AGAUCAACCCAGAUAACUATT; chemistry not given here)”, for which the Percent viability in the data set with MCC26 cells (VN-MCC) [8] turned out to be 73.1%; in the data set on MKL-2 cells (VP-MCC) [9], 48.5%.

For the compound “AGUCCUUUAUUAAGCGCAAtt (AGUCCUUUAUUAAGCGCAATT; chemistry not given here)”, the Percent viability in the data set on MCC26 cells (VN-MCC) [8] was found to be 103.7%; in the data set on MKL-2 cells (VP-MCC) [9] it was 80.2%.

As for “CAAAGGAAACCAACAAUAAtt (CAAAGGAAACCAACAAUAATT; chemistry not given here)”, the Percent viability in the data set on MCC26 cells (VN-MCC) [8] came out at 87.6%; with MKL-2 cells (VP-MCC) [9] it was 80.7%.

For the compound “GCAGGUUCCUUAUCUGUCAtt (GCAGGUUCCUUAUCUGUCATT; chemistry not given here)”, the Percent viability amounted to 85.0% in the data set on MCC26 cells (VN-MCC) [8] and 56.1% with MKL-2 cells (VP-MCC) [9].

In the case of “GCUUGUACCUCAUAUCAGAtt (GCUUGUACCUCAUAUCAGATT; chemistry not given here)”, the Percent viability was found to be 90.4% with MCC26 cells (VN-MCC) [8] and 48.4% in the data set with MKL-2 cells (VP-MCC) [9].

“UAUUGUUGGUUUCCUUUGC (chemistry not given here)”: the Percent viability with MCC26 cells (VN-MCC) [8] came to 96.2%; with MKL-2 cells (VP-MCC) [9], 92.8%.

For the compound “UGAAUGUAGAGAUGCGGUG (chemistry not given here)”, the Percent viability is reported as 98.4% in the data set on MCC26 cells (VN-MCC) [8] and 74.1% in the data set with MKL-2 cells (VP-MCC) [9].
